Series [1] relates to influx of neutrophils to the lung in LPS-challenged rats. Kind of series: Rat LPS neutrophilia model. It counts as in vivo. The note with it: LPS aerosol 100 ug/ml 15 min, lavage 4 hours later; in at least one of the range of conditions tested. In a few lines: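 Rats were dosed intratracheally (200 µl, suspension, under isoflurane) 15 min–24 h before 15 min exposure to LPS aerosol (100 µg/ml). Four hours later, bronchoalveolar lavage cells were stained and counted differentially. Results are % neutrophil inhibition versus untreated controls at a stated dose and pretreatment time.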

The subject of series [2] is TGF-β-induced increases in fibronectin and thrombospondin. The settings on record: cited from earlier work.
Series [3] relates to circulating levels of TNFα. The settings on record: mice; cited from earlier work.
The conditions of series [4]: patients suffering from Psoriasis; seen as early as 4 weeks, persisted for 12 weeks; cited from earlier work.
For series [5] the following is noted: patients with sleep apnea; cited from earlier work.

We go through seven compounds from patent publication US20090318424A1, “NOVEL COMPOUNDS” (priority 2006, published 2009).

“Also recorded” adds a separate entry of the source.

`CCN(CC)CCCNc1nc(-c2cc(C(=O)NC)ccc2C)c2c(n1)N(c1c(F)cccc1F)C(=O)NC2` [Example 172, 3-[2-{[3-(diethylamino)propyl]amino}-8-(2,6-difluorophenyl)-7-oxo-5,6,7,8-tetrahydropyrimido[4,5-d]pyrimidin-4-yl]-N,4-dimethylbenzamide] displayed a melting point of 133 to 136 °C. Moreover, the inhibition of neutrophilia result in series [1] is “statistically nonsignificant inhibition”. For `CNC(=O)c1ccc(C)c(-c2nc(N(C)CCCN(C)C)nc3c2CNC(=O)N3c2c(F)cccc2F)c1` [Example 174, 3-{8-(2,6-difluorophenyl)-2-[[3-(dimethylamino)propyl](methyl)amino]-7-oxo-5,6,7,8-tetrahydropyrimido[4,5-d]pyrimidin-4-yl}-N,4-dimethylbenzamide], in that order: 163 to 165 °C and “inactive”. For `CNC(=O)c1ccc(C)c(-c2nc(N3CCC(N4CCCC4)CC3)nc3c2CNC(=O)N3c2c(F)cccc2F)c1` [Example 175, 3-{8-(2,6-difluorophenyl)-7-oxo-2-[4-(1-pyrrolidinyl)-1-piperidinyl]-5,6,7,8-tetrahydropyrimido[4,5-d]pyrimidin-4-yl}-N,4-dimethylbenzamide], in that order: 189 to 194 °C (dec.) and “inactive”.

Turning to `CNC(=O)c1ccc(C)c(-c2nc(N3CCC(N4CCCCC4)CC3)nc3c2CNC(=O)N3c2c(F)cccc2F)c1` [Example 176, 3-[2-(1,4′-bipiperidin-1′-yl)-8-(2,6-difluorophenyl)-7-oxo-5,6,7,8-tetrahydropyrimido[4,5-d]pyrimidin-4-yl]-N,4-dimethylbenzamide], the melting point was 179 to 184 °C (dec.). In addition, the inhibition of neutrophilia entry in series [1] was “statistically nonsignificant inhibition”. For `COc1nccc(-c2c(-c3ccc(F)cc3)ncn2C2CCNCC2)n1` [SB-242235], the “TGF-β-induced increases in fibronectin and thrombospondin” value in series [2] is listed as “inhibited”. On to `CC(NC(C)(C)C)C(=O)c1cccc(Cl)c1` (stereo not drawn) [bupropion], for which the “circulating levels of TNFα” value in series [3] is recorded as “reduce circulating levels of TNFα”. For etanercept, the “symptoms of depression (HAMD and BDI score) and fatigue” value in series [4] is “demonstrated efficacy; also recorded: reduce symptoms of depression”. Also, the sleepiness result in series [5] is on record as “decreases in sleepiness”.
